Laboratory results from ChEMBL document CHEMBL1201862, “PubChem BioAssay data set” (2004).
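Briefly, cells in 96-well plates were exposed to five compound concentrations for 48 h, and endpoints were estimated by linear interpolation. The concentration for 50% growth inhibition is given as GI50.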 Calls of active or inactive are those of the source. No stated cut-off is given here; in the data, active = GI50 up to about 1.1 µM and inactive = higher.

Legend:
Test in all cases: inhibition of tumour cell growth, NCI panel, 48 h
BT-549 = tested on: BT-549
CCRF-CEM = tested on: CCRF-CEM
COLO 205 = tested on: COLO 205
DU-145 = tested on: DU-145
HCT-15 = tested on: HCT-15
HT-29 = tested on: HT-29
LOX IMVI = tested on: LOX IMVI
MDA-MB-435 = tested on: MDA-MB-435
NCI-H226 = tested on: NCI-H226
OVCAR-4 = tested on: OVCAR-4
OVCAR-8 = tested on: OVCAR-8
SF-295 = tested on: SF-295
SK-MEL-5 = tested on: SK-MEL-5
SNB-19 = tested on: SNB-19
SNB-75 = tested on: SNB-75
SR = tested on: SR
U-251 = tested on: U-251
UACC-257 = tested on: UACC-257
UACC-62 = tested on: UACC-62
LXFL 529 = tested on: LXFL 529

| Compound | GI50 (BT-549) | GI50 (CCRF-CEM) | GI50 (COLO 205) | GI50 (DU-145) | GI50 (HCT-15) [µM] | GI50 (HT-29) | GI50 (LOX IMVI) | GI50 (MDA-MB-435) | GI50 (NCI-H226) | GI50 (OVCAR-4) | GI50 (OVCAR-8) | GI50 (SF-295) | GI50 (SK-MEL-5) | GI50 (SNB-19) | GI50 (SNB-75) | GI50 (SR) | GI50 (U-251) | GI50 (UACC-257) | GI50 (UACC-62) | GI50 (LXFL 529) |
| --- | --- | --- | --- | --- | --- | --- | --- | --- | --- | --- | --- | --- | --- | --- | --- | --- | --- | --- | --- | --- |
| CN(C)CCn1c(=O)c2ccc3c4c(nn3CCN(C)C)c3ccccc3n(c1=O)c24 | 1.84 µM (inactive) | 0.178 µM (active) | 0.201 µM (active) | 0.208 µM (active) | < 0.125 | < 0.123 µM (active) | 0.214 µM (active) | 0.23 µM (active) | 0.506 µM (active) | 0.141 µM (active) | < 0.01 µM (active) | 0.0292 µM (active) | 0.728 µM (active) | 0.313 µM (active) | < 0.0146 µM (active) | < 0.127 µM (active) | 0.196 µM (active) | 1.12 µM (inactive) | 0.564 µM (active) | – |
| Cc1cc2c(=Cc3ccc(N(C)C)cc3)c3ccccc3n2[n+]1C | 0.537 µM (active) | 0.944 µM (active) | 0.164 µM (active) | 0.713 µM (active) | 12.3 | 0.675 µM (active) | 0.458 µM (active) | 0.424 µM (active) | 1.01 µM (active) | 0.641 µM (active) | 0.313 µM (active) | 1.05 µM (active) | 0.414 µM (active) | 0.415 µM (active) | 0.409 µM (active) | 0.0865 µM (active) | 0.203 µM (active) | 0.207 µM (active) | 1.4 µM (inactive) | – |
| COC(=O)c1c(-c2ccccc2)sc(-c2cccc3ccccc23)c1C(=O)OC | – | > 100 µM (inactive) | > 100 µM (inactive) | – | > 100 | 51.3 µM (inactive) | > 100 µM (inactive) | – | > 100 µM (inactive) | 84.7 µM (inactive) | > 100 µM (inactive) | > 100 µM (inactive) | > 100 µM (inactive) | > 100 µM (inactive) | > 100 µM (inactive) | – | > 100 µM (inactive) | > 100 µM (inactive) | > 100 µM (inactive) | > 100 µM (inactive) |
| Cc1c(/C=N/NC(=O)c2cc(Br)cc(Br)c2O)c(=O)n(-c2ccccc2)n1C | – | 23.3 µM (inactive) | 61.2 µM (inactive) | – | 39.1 | 64.7 µM (inactive) | 6.53 µM (inactive) | – | 90.6 µM (inactive) | > 100 µM (inactive) | 27.5 µM (inactive) | > 100 µM (inactive) | 51.6 µM (inactive) | > 100 µM (inactive) | > 100 µM (inactive) | – | 69 µM (inactive) | 35.3 µM (inactive) | 19.6 µM (inactive) | 75.9 µM (inactive) |
| COC1=CC(=O)C2C(C1=O)[C@@H]1c3ccccc3OC(C)(C)[C@H]21 (some centres undefined) | – | 23.1 µM (inactive) | 19.2 µM (inactive) | – | 19.9 | 28.1 µM (inactive) | 14.2 µM (inactive) | – | 19.1 µM (inactive) | 17.9 µM (inactive) | 21.7 µM (inactive) | 71 µM (inactive) | 27.4 µM (inactive) | 7.73 µM (inactive) | 10.6 µM (inactive) | – | 53.2 µM (inactive) | 29.2 µM (inactive) | > 10 µM (inactive) | 18.7 µM (inactive) |
| NC(CCc1ncc(-c2ccccc2)s1)C(=O)O (centres undefined) | – | > 100 µM (inactive) | > 100 µM (inactive) | – | > 100 | > 100 µM (inactive) | > 100 µM (inactive) | – | 17.4 µM (inactive) | – | > 100 µM (inactive) | > 100 µM (inactive) | > 100 µM (inactive) | > 100 µM (inactive) | 85.9 µM (inactive) | – | > 100 µM (inactive) | > 100 µM (inactive) | > 100 µM (inactive) | > 100 µM (inactive) |
| Cc1cc(/N=C/c2ccc(Cl)cc2)n(-c2ccccc2)n1 | 31.8 µM (inactive) | 26.5 µM (inactive) | 23.9 µM (inactive) | 50.9 µM (inactive) | 19 | 23.4 µM (inactive) | 54.2 µM (inactive) | 31.1 µM (inactive) | 43.6 µM (inactive) | 33.4 µM (inactive) | 40.7 µM (inactive) | 30.8 µM (inactive) | 27.6 µM (inactive) | 61.1 µM (inactive) | 32.4 µM (inactive) | 31 µM (inactive) | > 100 µM (inactive) | 63.5 µM (inactive) | 54.2 µM (inactive) | – |
| Clc1nc(Cl)c(Cc2ccccc2)c(Cl)n1 | 3.37 µM (inactive) | 3.27 µM (inactive) | 6.46 µM (inactive) | 14.8 µM (inactive) | 4.55 | 3.94 µM (inactive) | 3.03 µM (inactive) | 4.32 µM (inactive) | 13.3 µM (inactive) | 3.67 µM (inactive) | 4.34 µM (inactive) | 14.4 µM (inactive) | 2.37 µM (inactive) | 17.9 µM (inactive) | 5.52 µM (inactive) | 4.26 µM (inactive) | 11.7 µM (inactive) | > 10 µM (inactive) | 3.69 µM (inactive) | – |
| O=C1OC(C2Cc3ccc4c(c3C2=O)CCCC4)c2ccccc21 (centres undefined) | 54.8 µM (inactive) | 15.3 µM (inactive) | 46.8 µM (inactive) | 74.3 µM (inactive) | 28.4 | 36.6 µM (inactive) | 25.5 µM (inactive) | 38.8 µM (inactive) | 20.6 µM (inactive) | 24.8 µM (inactive) | 43.9 µM (inactive) | 40.1 µM (inactive) | 33.4 µM (inactive) | 44.5 µM (inactive) | 65.6 µM (inactive) | > 10 µM (inactive) | 39.6 µM (inactive) | 52.2 µM (inactive) | 23.7 µM (inactive) | – |
| Cc1cc2c(=O)c3ccc(Cl)cc3[nH]c2c(C(N)=O)c1C | – | > 100 µM (inactive) | > 100 µM (inactive) | – | > 100 | > 100 µM (inactive) | > 100 µM (inactive) | – | – | > 100 µM (inactive) | > 100 µM (inactive) | > 100 µM (inactive) | > 100 µM (inactive) | > 100 µM (inactive) | 35.5 µM (inactive) | – | > 100 µM (inactive) | > 100 µM (inactive) | > 100 µM (inactive) | > 100 µM (inactive) |
| CC1OC(OC2CCCc3c(O)c4c(c(O)c32)C(=O)c2ccccc2C4=O)CC(N)C1O (centres undefined) | – | 1.2 µM (inactive) | 1.62 µM (inactive) | – | – | 1.47 µM (inactive) | 1.61 µM (inactive) | – | 1.69 µM (inactive) | 1.68 µM (inactive) | 1.42 µM (inactive) | 1.82 µM (inactive) | 1.82 µM (inactive) | 1.64 µM (inactive) | 1.35 µM (inactive) | – | 1.86 µM (inactive) | 1.62 µM (inactive) | – | 1.55 µM (inactive) |
| CCCN1CN(C(C(=O)N[C@@H]2C(=O)N3C2SC(C)(C)C3C(=O)O)c2ccccc2)CSC1=S (some centres undefined) | – | 95.9 µM (inactive) | 23.6 µM (inactive) | – | 80.5 | 48.1 µM (inactive) | 50.9 µM (inactive) | – | – | > 100 µM (inactive) | > 100 µM (inactive) | > 100 µM (inactive) | > 100 µM (inactive) | > 100 µM (inactive) | > 100 µM (inactive) | – | > 100 µM (inactive) | > 100 µM (inactive) | > 100 µM (inactive) | 70.5 µM (inactive) |
| CCOC(=O)N[C@@H]1C(CC(=O)OC)O[C@H]2OC(C)(C)O[C@H]21 (some centres undefined) | – | > 100 µM (inactive) | > 100 µM (inactive) | – | > 100 | > 100 µM (inactive) | > 100 µM (inactive) | – | > 100 µM (inactive) | > 100 µM (inactive) | – | > 100 µM (inactive) | > 100 µM (inactive) | – | > 100 µM (inactive) | – | > 100 µM (inactive) | > 100 µM (inactive) | > 100 µM (inactive) | > 100 µM (inactive) |
| CC(=O)O[C@H]1C[C@H]2[C@@H]([C@H](OC(C)=O)C[C@@H]3CC4(CC[C@@]32C)OOC2(CCCCC2)OO4)[C@@H]2CC[C@H]([C@H](C)CCC(N)=O)[C@@]12C | 2.07 µM (inactive) | 1.28 µM (inactive) | 1.91 µM (inactive) | 1.93 µM (inactive) | 2 | 3.4 µM (inactive) | 1 µM (active) | 1.65 µM (inactive) | 2.46 µM (inactive) | 1.78 µM (inactive) | 2.14 µM (inactive) | 3.67 µM (inactive) | 2.15 µM (inactive) | 5.85 µM (inactive) | 2.28 µM (inactive) | 0.0787 µM (active) | 1.51 µM (inactive) | 5.62 µM (inactive) | 2.7 µM (inactive) | – |
| COc1ccc2cc3[n+](cc2c1O)CCc1cc2c(cc1-3)OCO2 [BERBERRUBINE CHLORIDE] | – | 80.7 µM (inactive) | > 100 µM (inactive) | – | > 100 | 96.4 µM (inactive) | 40.4 µM (inactive) | – | > 100 µM (inactive) | > 100 µM (inactive) | > 100 µM (inactive) | > 100 µM (inactive) | – | > 100 µM (inactive) | > 100 µM (inactive) | – | > 100 µM (inactive) | > 100 µM (inactive) | > 100 µM (inactive) | > 10 µM (inactive) |
| C=C1C(=O)O[C@@H]2C[C@@]3(C)CCC[C@H](C)C3=C[C@H]12 [HELENINE] | 3.62 µM (inactive) | 1.52 µM (inactive) | 1.73 µM (inactive) | 12 µM (inactive) | 4.3 | 4.29 µM (inactive) | 10.5 µM (inactive) | 5.08 µM (inactive) | 15.7 µM (inactive) | 4.49 µM (inactive) | 6.19 µM (inactive) | 17.5 µM (inactive) | 4.8 µM (inactive) | 16.5 µM (inactive) | 3.46 µM (inactive) | 1.19 µM (inactive) | 9.86 µM (inactive) | 7.21 µM (inactive) | 6.46 µM (inactive) | – |
